According to PubChem BioAssay AID248 (DTP/NCI, 2004):
“And” between values parts separate entries of the source, which are not always exact repeats. Identical values can stand only once. Inconclusive results and toxic doses are left out. Rule as the data show it: active = T/C of 150% or more; inactive = T/C below 125%.

Test system: L1210 leukemia ip in BDF1 mice, survival T/C
Assay: NCI In Vivo Anticancer Drug Screen. Data for tumor model L1210 Leukemia (intraperitoneal) in B6D2F1 (BDF1) mice
Details: endpoint: mean survival time, higher = longer survival
Procedure, shortened: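 Mice bearing the transplanted tumor received compound or vehicle. Survival of the treated group was divided by that of the vehicle-treated control group to give the ratio.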

[1] = dose: 100.0 mg/kg/injection, schedule: Q01DX009 (ip), vehicle: Klucel (hydroxypropylcellulose) (HPC)
[2] = dose: 100.0 mg/kg/injection, schedule: Q04DX003 (ip), vehicle: Klucel (hydroxypropylcellulose) (HPC)
[3] = dose: 200.0 mg/kg/injection, schedule: Q01DX009 (ip), vehicle: Klucel (hydroxypropylcellulose) (HPC)
[4] = dose: 200.0 mg/kg/injection, schedule: Q04DX003 (ip), vehicle: Klucel (hydroxypropylcellulose) (HPC)
[5] = dose: 400.0 mg/kg/injection, schedule: Q01DX009 (ip), vehicle: Klucel (hydroxypropylcellulose) (HPC)
[6] = dose: 400.0 mg/kg/injection, schedule: Q04DX003 (ip), vehicle: Klucel (hydroxypropylcellulose) (HPC)
[7] = dose: 100.0 mg/kg/injection, schedule: Q04DX003 (ip), vehicle: saline with Tween-80
[8] = dose: 200.0 mg/kg/injection, schedule: Q04DX003 (ip), vehicle: saline with Tween-80
[9] = dose: 50.0 mg/kg/injection, schedule: Q01DX009 (ip), vehicle: Klucel (hydroxypropylcellulose) (HPC)
[10] = dose: 100.0 mg/kg/injection, schedule: Q04DX003 (ip), vehicle: saline
[11] = dose: 200.0 mg/kg/injection, schedule: Q04DX003 (ip), vehicle: saline
[12] = dose: 6.25 mg/kg/injection, schedule: Q01DX009 (ip), vehicle: saline with Tween-80
[13] = dose: 12.5 mg/kg/injection, schedule: Q01DX009 (ip), vehicle: saline with Tween-80
[14] = dose: 100.0 mg/kg/injection, schedule: Q01DX001 (ip), vehicle: saline
[15] = dose: 200.0 mg/kg/injection, schedule: Q01DX001 (ip), vehicle: saline
[16] = dose: 400.0 mg/kg/injection, schedule: Q01DX001 (ip), vehicle: saline

Measured: T/C

CC(/C=N/N=C(N(C)C)N(C)C)=N/N=C(N(C)C)N(C)C
inactive: dose: 15.0 mg/kg/injection, schedule: Q01DX Z (ip), vehicle: methylcellulose (MC) 94 % of control | dose: 30.0 mg/kg/injection, schedule: Q01DX Z (ip), vehicle: methylcellulose (MC) 97 % of control | dose: 30.0 mg/kg/injection, schedule: Q01DX Z (oral), vehicle: methylcellulose (MC) 102 % of control | dose: 60.0 mg/kg/injection, schedule: Q01DX Z (ip), vehicle: methylcellulose (MC) 97 % of control | dose: 60.0 mg/kg/injection, schedule: Q01DX Z (oral), vehicle: methylcellulose (MC) 95 % of control | dose: 120.0 mg/kg/injection, schedule: Q01DX Z (ip), vehicle: methylcellulose (MC) 101 % of control

Cc1cccc(NC(=O)c2ccc(Cl)cc2Cl)c1C
inactive: [1] 102 % of control | [2] 101 % of control | [3] 91 % of control | [4] 90 % of control | [5] 91 % of control | [6] 93 % of control

O=P(CCO)(c1ccccc1)c1ccccc1
inactive: [7] 112 % of control | [8] 101 % of control

CC(C(=O)c1ccccc1)C(O)(C(F)(F)Cl)C(F)(F)Cl (stereo unspecified)
inactive: [2] 91 % of control | [4] 91 % of control | [6] 91 % of control

COC(=O)C1(C)CCCC2(C)c3cc(OC)ccc3C3OC3C12 (stereo unspecified)
inactive: dose: 100.0 mg/kg/injection, schedule: Q04DX003 (ip), vehicle: other 103 % of control | dose: 200.0 mg/kg/injection, schedule: Q04DX003 (ip), vehicle: other 100 % of control | dose: 400.0 mg/kg/injection, schedule: Q04DX003 (ip), vehicle: other 101 % of control

O=C(O)c1c(Br)c(Br)c(Br)c(Br)c1C(=O)Nc1ccccc1F
inactive: [1] 93 % of control | [3] 96 % of control

O=C(O)c1ncn[nH]1
inactive: [1] 95 % of control | dose: 100.0 mg/kg/injection, schedule: Q04DX002 (ip), vehicle: Klucel (hydroxypropylcellulose) (HPC) 89 % of control | [2] 101 % of control | [3] 100 % of control | dose: 200.0 mg/kg/injection, schedule: Q04DX002 (ip), vehicle: Klucel (hydroxypropylcellulose) (HPC) 115 % of control | [4] 95 % of control | [5] 100 % of control | dose: 400.0 mg/kg/injection, schedule: Q04DX002 (ip), vehicle: Klucel (hydroxypropylcellulose) (HPC) 89 % of control | [6] 108 % of control

COC(=O)c1ccccc1N=Nc1ccc(O)c(C(C)C)c1
inactive: dose: 25.0 mg/kg/injection, schedule: Q01DX009 (ip), vehicle: Klucel (hydroxypropylcellulose) (HPC) 98 % of control | [9] 98 % of control | [2] 97 % of control | [4] 100 % of control | [6] 98 % of control

O=C(Nc1c(Oc2ccc(Cl)cc2)ccc(Cl)c1S(=O)(=O)O)Nc1c(Oc2ccc(Cl)c(Cl)c2)ccc(Cl)c1S(=O)(=O)O
inactive: dose: 50.0 mg/kg/injection, schedule: Q04DX003 (ip), vehicle: saline 97 % of control | [10] 90 % of control | [11] 95 % of control

CC(C)OC(CCC#N)c1ccccc1 (stereo unspecified)
inactive: [1] 101 % of control | [2] 102 % of control | [3] 98 % of control | [4] 96 % of control | [6] 102 % of control

Nc1nc(N)c(CCCOc2ccc(NC(=O)CCCc3ccc(NC(=O)CBr)cc3)cc2)c(N)n1
inactive: [2] 102 % of control | [4] 109 % of control | [6] 102 % of control

Cc1ccc(NCc2nc(N)nc(Nc3ccccc3)n2)cc1
inactive: [7] 97 % of control | [8] 92 % of control | dose: 400.0 mg/kg/injection, schedule: Q04DX003 (ip), vehicle: saline with Tween-80 93 % of control

CC1CC[N-]CC1.CC1CC[N-]CC1.[Br][Pt+2]([Br])([Br])[Br]
inactive: [12] 108 % of control | [13] 113 % of control | dose: 12.5 mg/kg/injection, schedule: Q04DX003 (ip), vehicle: saline with Tween-80 104 % of control | dose: 25.0 mg/kg/injection, schedule: Q04DX003 (ip), vehicle: saline with Tween-80 105 % of control

Cc1ccc(OCC(=O)Nc2ccc3c(c2)C(=O)c2ccccc2C3=O)c(C)c1
inactive: dose: 100.0 mg/kg/injection, schedule: Q01DX001 (ip), vehicle: carboxymethylcellulose (CMC) 101 % of control | dose: 200.0 mg/kg/injection, schedule: Q01DX001 (ip), vehicle: carboxymethylcellulose (CMC) 98 % of control | dose: 400.0 mg/kg/injection, schedule: Q01DX001 (ip), vehicle: carboxymethylcellulose (CMC) 95 % of control

O=S1(=O)CCC2CCCCC2C1 (stereo unspecified)
inactive: [12] 94 % of control | [13] 100 % of control | dose: 25.0 mg/kg/injection, schedule: Q01DX009 (ip), vehicle: saline with Tween-80 90 % of control

Brc1cscc1-c1c2ccccc2cc2ccccc12
inactive: dose: 50.0 mg/kg/injection, schedule: Q01DX009 (ip), vehicle: saline with Tween-80 106 % of control | dose: 100.0 mg/kg/injection, schedule: Q01DX009 (ip), vehicle: saline with Tween-80 98 % of control | dose: 200.0 mg/kg/injection, schedule: Q01DX009 (ip), vehicle: saline with Tween-80 98 % of control

CCCCN(C)N=Nc1n[nH]nc1C(N)=O
inactive: dose: 25.0 mg/kg/injection, schedule: Q01DX Z (ip), vehicle: carboxymethylcellulose (CMC) 118 % of control | dose: 50.0 mg/kg/injection, schedule: Q01DX Z (ip), vehicle: carboxymethylcellulose (CMC) 113 % of control | dose: 250.0 mg/kg/injection, schedule: Q01DX001 (ip), vehicle: carboxymethylcellulose (CMC) 123 % of control

COc1ccc(C)cc1NC(=O)Nc1ccc(SC)cc1
inactive: [1] 87 % of control | [3] 95 % of control | [5] 90 % of control

CC(=O)OCC(OC(C)=O)C1(O)CCC2C3CCC4=CC(=O)CCC4(C)C3CCC21C (stereo unspecified)
inactive: [9] 100 % of control | [1] 94 % of control and 107 % of control | [3] 93 % of control

CCCCN(C)C(=S)S[Te](SC(=S)N(C)CCCC)(SC(=S)N(C)CCCC)SC(=S)N(C)CCCC
inactive: [14] 95 % of control | [15] 90 % of control | [16] 93 % of control | dose: 800.0 mg/kg/injection, schedule: Q01DX001 (ip), vehicle: saline 106 % of control | dose: 1600.0 mg/kg/injection, schedule: Q01DX001 (ip), vehicle: saline 104 % of control

COc1ccc(/C=C(\C#N)c2cccc3ccccc23)cc1
inactive: [2] 98 % of control | [4] 105 % of control | [6] 90 % of control

CCOC(=O)C(O)(CC)c1cc[n+](Cc2cc3ccccc3nc2Cl)cc1C (stereo unspecified)
inactive: dose: 50.0 mg/kg/injection, schedule: Q01DX001 (ip), vehicle: saline 115 % of control | [14] 94 % of control

ClCc1nc2nc(Cl)c(Cl)nc2[nH]1
inactive: dose: 50.0 mg/kg/injection, schedule: Q01DX009 (ip), vehicle: saline 88 % of control | dose: 100.0 mg/kg/injection, schedule: Q01DX009 (ip), vehicle: saline 102 % of control | [10] 101 % of control | dose: 200.0 mg/kg/injection, schedule: Q01DX009 (ip), vehicle: saline 102 % of control | [11] 101 % of control | dose: 400.0 mg/kg/injection, schedule: Q04DX003 (ip), vehicle: saline 98 % of control

Cc1c([N+](=O)[O-])sc2ccccc12
inactive: [14] 97 % of control | [15] 97 % of control | [16] 90 % of control
